Test results from the NIST ThermoML archive (doi:10.1021/acs.jced.5b00944).

Assays:
[1] = xn = mol fraction of the nth substance listed; conditions: x1 = 1; for surface tension liquid-gas: Capillary rise; for speed of sound: Sing-around technique in a fixed-path interferometer
[2] = for surface tension liquid-gas: Capillary rise; for speed of sound / mass density: 100 kPa, Liquid; for speed of sound: Sing-around technique in a fixed-path interferometer; for mass density: Vibrating tube method

O [water] + CCCC[N+]1(C)CCCC1.N#CN=C=[N-]
[1]
Conditions | surface tension liquid-gas [mN/m]
297.7 K | 71.9
304.8 K | 70.6
313.2 K | 69.5
324.1 K | 67.6

[1], 100 kPa, Liquid
Conditions | speed of sound [m/s]
318.15 K | 1536.7
333.15 K | 1551.3

Conditions | mass density [kg/m3]
[1], 333.15 K, 100 kPa, Liquid, Vibrating tube method | 983.19

O [water]
[2]
Conditions | speed of sound [m/s] | surface tension liquid-gas [mN/m]
297.7 K | – | 71.9
304.8 K | – | 70.6
313.2 K | – | 69.5
318.15 K | 1536.7 | –
324.1 K | – | 67.6
333.15 K | 1551.3 | –

CCCC[N+]1(C)CCCC1.N#CN=C=[N-] [1-butyl-1-methylpyrrolidinium dicyanamide]
[2]
Conditions | mass density [kg/m3] | speed of sound [m/s]
288.15 K | 1019.11 | 1834.4
298.15 K | 1013.48 | 1809.6
308.15 K | 1007.82 | 1785.2
318.15 K | 1002.33 | 1761
333.15 K | 994.14 | 1724.7
